The subject of one assay is MDA-MB-231 (breast). Nature of the assay: In vitro cytotoxic activity (MTT) assay, MDA-MB-231. It counts as cell-based. To be noted: Homo sapiens; MDA-MB-231 (breast) cells, exposed for 96 hours; read-out: IC50, 50% inhibition of cell proliferation. The protocol:
(§1) Compounds 1-15 were screened for their in vitro cytotoxic activity utilizing a 3-(4,5-dimethyl-thiazol-2-yl)-2,5-diphenyltetrazolium bromide (MTT) assay against selected cancer human cell lines consisting of PC3 (prostate). HCT116 (colon), A375 (melanoma), H1299 (lung). MIAPaCa-2 (pancreas), HL60 (leukemia). MCF7 (breast), MDA-MB-231 (breast) (T. Mosmann, J. Immunol. Meth., 1983, 65, 55-63). The cells were cultured at 37° C. in RMPI1640 medium supplemented with 10% fetal bovine serum, 50 IU/mL penicillin, and 50 μg/mL streptomycin in a 5% CO2 incubator. All cells were sub-cultured 3 times/week by trypsinisation. Viable cells were seeded and allowed to adhere for 12 h before a test drug was added in 96-well plates at an initial density of 1.0×10^5 cells/mL. Tumour cell lines were separately exposed to various concentrations of the tested compounds followed by incubation at a temperature of 37° C. during 96 h inside a medium of fresh RMPI 1640. Cells were subsequently incubated at 37° C. using MTT at 0.5 mg/mL during 4 h. After removal of supernatant, formazan crystals were dissolved in isopropanol and the optical density was measured at 570 nm. CX-4945 was used as a positive control.

In the next assay the test system is HL60 (leukemia). Briefly: In vitro cytotoxic activity (MTT) assay, HL60. It counts as cell-based. The settings on record: Homo sapiens, HL-60; HL60 (leukemia) cells, exposed for 96 hours; read-out: IC50, 50% inhibition of cell proliferation. As for the experimental part:
as §1

In the next assay the test system is MCF7 (breast). Briefly: In vitro cytotoxic activity (MTT) assay, MCF7. To be noted: Homo sapiens; MCF7 (breast) cells, exposed for 96 hours; read-out: IC50, 50% inhibition of cell proliferation. It counts as cell-based. As for the experimental part:
as §1

A further assay has as its system PC3 (prostate). Nature of the assay: In vitro cytotoxic activity (MTT) assay, PC3. In kind it is cell-based. The settings on record: Homo sapiens, Prostate cell; PC3 (prostate) cells, exposed for 96 hours; read-out: IC50, 50% inhibition of cell proliferation. As for the experimental part: as §1
Assay [1] deals with T1, recombinant human CK2 (RRββ-holoenzyme) (Homo sapiens, UniProt P68400).
T1 construct: purchased Millipore
T1 sequence (P68400 whole entry): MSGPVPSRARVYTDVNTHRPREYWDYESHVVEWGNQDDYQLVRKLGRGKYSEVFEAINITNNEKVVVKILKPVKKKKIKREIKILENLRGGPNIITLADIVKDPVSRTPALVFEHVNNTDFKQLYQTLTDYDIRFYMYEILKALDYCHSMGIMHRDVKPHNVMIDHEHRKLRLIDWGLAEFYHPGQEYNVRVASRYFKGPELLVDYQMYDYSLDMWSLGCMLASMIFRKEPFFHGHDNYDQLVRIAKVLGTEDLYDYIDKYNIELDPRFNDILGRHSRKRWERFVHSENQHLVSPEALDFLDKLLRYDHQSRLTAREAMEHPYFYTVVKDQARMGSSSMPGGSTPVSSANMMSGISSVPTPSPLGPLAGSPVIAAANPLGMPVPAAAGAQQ
T1 sequence (P67870 whole entry partner): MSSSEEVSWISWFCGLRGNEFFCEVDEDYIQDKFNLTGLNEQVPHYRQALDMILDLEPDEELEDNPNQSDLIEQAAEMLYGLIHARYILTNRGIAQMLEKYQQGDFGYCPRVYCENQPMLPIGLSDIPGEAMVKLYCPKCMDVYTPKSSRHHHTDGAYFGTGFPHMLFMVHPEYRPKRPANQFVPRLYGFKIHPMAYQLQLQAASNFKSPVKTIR
Briefly: CK2 Kinase Assay. To be noted: final ATP concentration 15 μM, 10 min at 30° C.; read-out: IC50 protein kinase CK2 activity. In kind it is biochemical. As for the experimental part: CK2 Kinase Assay was conducted using the protocol as described in Pierre F. et al; J. Med. Chem. 2011, 54, 635-654. The tested compounds in aqueous solution were added at a volume of 10 μL to a reaction mixture comprising 10 μL of assay dilution buffer (ADB; 20 mM MOPS, pH 7.2, 25 mM β-glycerol phosphate, 5 mM EGTA, 1 mM sodium orthovanadate, and 1 mM dithiothreitol), 10 μL of substrate peptide (RRRDDDSDDD, dissolved in ADB at a concentration of 1 mM), 10 μL of recombinant human CK2 (RRββ-holoenzyme, 25 ng dissolved in ADB; Millipore). Reactions were initiated by the addition of 10 μL of ATP solution (90% 75 mMMgCl2, 75 μM ATP (final ATP concentration:15 μM) dissolved in ADB; 10% [γ-33P] ATP (stock 1 mCi/100 μL; 3000 Ci/mmol (Perkin-Elmer) and maintained for 10 min at 30° C. The reactions were quenched with 100 μL of 0.75% phosphoric acid and then transferred to and filtered through a phosphor cellulose filter plate (Millipore). After washing each well five times with 0.75% phosphoric acid, the plate was dried under vacuum for 5 min and, following the addition of 15 μL of scintillation fluid to each well, the residual radioactivity was measured using a Wallac luminescence counter. The IC50 values were derived from eight concentrations of test inhibitors.

The test system of another assay is A375 (melanoma). Briefly: In vitro cytotoxic activity (MTT) assay, A375. In kind it is cell-based. The settings on record: Homo sapiens, A-375; A375 (melanoma) cells, exposed for 96 hours; read-out: IC50, 50% inhibition of cell proliferation. The protocol:
as §1

The next assay concerns HCT116 (colon). Nature of the assay: In vitro cytotoxic activity (MTT) assay, HCT116. In kind it is cell-based. The settings on record: Homo sapiens, HCT-116; HCT116 (colon) cells, exposed for 96 hours; read-out: IC50, 50% inhibition of cell proliferation. The protocol:
as §1

The next assay concerns H1299 (lung). Nature of the assay: In vitro cytotoxic activity (MTT) assay, H1299. In kind it is cell-based. The settings on record: Homo sapiens, NCI-H1299; H1299 (lung) cells, exposed for 96 hours; read-out: IC50, 50% inhibition of cell proliferation. The protocol:
as §1

For a further assay, the system named is MIAPaCa-2 (pancreas). Briefly: In vitro cytotoxic activity (MTT) assay, MIAPaCa-2. The settings on record: Homo sapiens, MIA PaCa-2; MIAPaCa-2 (pancreas) cells, exposed for 96 hours; read-out: IC50, 50% inhibition of cell proliferation. In kind it is cell-based. The protocol: as §1

The values below come from patent US11926629B1, “Pyrido[3′,4′:4,5]pyrrolo[2,3-c]isoquinoline compounds as CK2 inhibitors” (KING FAISAL UNIVERSITY, priority 2023, dated 2024).

Consider `O=C(O)c1ccc2c(c1)c(Nc1cccc(Cl)c1)nc1[nH]c3ccncc3c12` [Compound 1, 5-((3-chlorophenyl)amino)-7H-pyrido[3′,4′:4,5]pyrrolo[2,3-c]isoquinoline-3-carboxylic acid], for which the IC50 was 4.4 µM in the assay with MDA-MB-231 (breast); 4.3 µM in the assay on HL60 (leukemia); 3.6 µM with MCF7 (breast); 1100 nM with PC3 (prostate); 86 nM in [1]; 3.3 µM in the assay with A375 (melanoma). The IC50 in the assay on HCT116 (colon) is 2000 nM; in the assay with H1299 (lung), 900 nM; in the assay with MIAPaCa-2 (pancreas), 1200 nM.
